The test system of experiment [1] is release of the leukotriene LTB4 from a neutrophil cell line (MPRO cell line). The experiment is described as follows: LTB4-Cell Assay. The class given is cell-based. The following applies: Mus musculus, 1 h, read-out: inhibition of LTB4 with an EC50. The source says:
• This procedure was used for measuring the release of the leukotriene LTB4 from a neutrophil cell line using a competitive ELISA technique. Materials and Equipments Materials for Cell Preparation and Experiment • MPRO cell line (ATCC, Catalog # CRL-11422) • Calcium ionophore (A23187) (Sigma, Catalog # C7522) • Nordihydroguaiaretic acid (NDGA) (BioMol ,Catalog # EI101-0001) • Retinoic Acid (all-trans) (ATRA) (Sigma, Catalog # 95152) • Sterile, tissue-culture treated 96-well plates (Corning, Catalog # 3614) Materials for LTB4 ELISA • Precoated (Mouse Anti-Rabbit IgG) EIA 96 Well Strip Plates (Cayman, Catalog # 400004) • Leukotriene B4 AChE Tracer (Cayman Catalog # 420110) • Leukotriene B4 EIA Antiserum (Cayman Catalog # 420112) • Ellman's Reagent (Cayman Catalog # 400050) • EIA Buffer Concentrate (10×) (Cayman Catalog # 400060) • Wash Buffer Concentrate (400×) (Cayman Catalog # 400062) • Plastic plate covers (Cayman Catalog # 400012) Procedure
A mouse promyelocytic cell line (MPRO) was used in this assay. These cells are committed immature neutrophils that can be differentiated into mature neutrophils by treatment with 10 μM all-trans retinoic acid for 72 hours.
Following 72 hours of differentiation, cells were stimulated with 1 μM of a calcium ionophore (A23187) in the presence or absence of test compound or vehicle for 1 hour at 37° C. After this time, supernatant was removed from the cells and the LTB4 levels were determined following manufacturer's instructions, using a Leukotriene B4 EIA kit from Cayman (Cat # 5201 11). The negative controls were media samples from differentiated but un-stimulated cells. The compounds were screened at 5 concentrations in quadruplicate starting at 10 μM.

The target in experiment [2] is T1, human recombinant 5-Lipoxygenase (Homo sapiens, UniProt P09917).
T1 sequence (P09917 1-674): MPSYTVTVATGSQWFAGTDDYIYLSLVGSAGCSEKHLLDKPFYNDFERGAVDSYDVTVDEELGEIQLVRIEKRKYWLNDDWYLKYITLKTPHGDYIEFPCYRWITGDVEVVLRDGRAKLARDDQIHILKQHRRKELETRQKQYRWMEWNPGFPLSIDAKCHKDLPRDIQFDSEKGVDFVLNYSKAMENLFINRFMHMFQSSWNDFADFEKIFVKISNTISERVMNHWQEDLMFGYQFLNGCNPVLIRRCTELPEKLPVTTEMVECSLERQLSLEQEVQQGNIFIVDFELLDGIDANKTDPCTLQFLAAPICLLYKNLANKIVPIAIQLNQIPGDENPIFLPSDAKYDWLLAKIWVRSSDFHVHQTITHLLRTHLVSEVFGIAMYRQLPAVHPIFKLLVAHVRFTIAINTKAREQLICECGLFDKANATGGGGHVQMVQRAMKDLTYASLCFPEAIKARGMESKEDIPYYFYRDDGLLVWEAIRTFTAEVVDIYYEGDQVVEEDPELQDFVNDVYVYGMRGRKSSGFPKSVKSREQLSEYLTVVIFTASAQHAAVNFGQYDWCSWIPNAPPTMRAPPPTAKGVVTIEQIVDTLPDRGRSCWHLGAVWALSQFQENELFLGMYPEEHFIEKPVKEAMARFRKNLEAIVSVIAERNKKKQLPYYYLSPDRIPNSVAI
The experiment is described as follows: 5-Lipoxygenase Enzyme Assay. The following applies: 70 μM arachidonic acid, 10 minute incubation at room temperature, FOX reagent, absorbance at 620 nm; read-out: inhibition of 5-Lipoxygenase with an IC50. Format: biochemical. From the text:
This procedure was used for measuring the enzymatic activity of human recombinant 5-Lipoxygenase using a colorimetric method based on the ferric oxidation of xylenol orange.
• 96 well flat bottom microfilter plates (VWR, Catalog # 62402-933 9295) • Lipoxygenase screening assay buffer (Cayman, Catalog # 760710) • Human recombinant 5-Lipoxygenase (Cayman, Catalog # 60402) • Arachidonic Acid (Sigma, Catalog # A3555) • Xylenol orange tetra sodium salt (Aldrich, Catalog # 227854) • Iron (II) sulfate heptahydrate (Sigma, Catalog # F7002) • Sulfuric acid (95-98%) [18 M] • Methanol Procedure
Human recombinant 5-Lipoxygenase (Cayman Cat # 60402) was used in this assay. The test compound and/or vehicle was added to 0.5 μL 5-Lipoxygenase in 50 mM Tris-HCl buffer, pH 7.4. The reaction was initiated by addition of 70 μM arachidonic acid in Tris-HCl buffer, pH 7.4, and terminated after a 10 minute incubation at room temperature by addition of FOX reagent (25 mM sulfuric acid, 100 μM xylenol orange, 100 μM iron (II) sulfate, methanol:water 9:1). The yellow color of acidified xylenol orange was converted to a blue color by the lipid hydroperoxide-mediated oxidation of Fe^2+ ions and the interaction of the resulting Fe^3+ ions with the dye. The complex was allowed to form during a 1 hour incubation at room temperature with shaking. Absorbance of the Fe^3+ complex was then measured at […] using a spectrophotometer.
Negative controls contained enzyme during the incubation step but substrate was not added until after the FOX reagent. Compounds were screened at 5 concentrations in triplicate starting at 10 μM

Experiment [3] concerns LTB4 production in human whole blood. The experiment is described as follows: Inhibition of LTB4 Production in Blood. The following applies: 1 h, 20 μM A23187, 60 minutes at 37° C., LTB4 in plasma by ELISA, read-out: protection against LTB4 at an EC50. The class given is cell-based. On the procedure: • Human whole blood (Na citrate) (Stanford Blood Center) • A23187, (Sigma, Cat# C-7522) • Leukotriene B4 EIA reagents (Cayman Chemical, Cat # 520111) • BWA4C (Sigma, Cat # B7559) Procedure Preparation of A23187:
A23187 was prepared as a 10 mM stock solution in DMSO (aliquots can be stored at −20° C.). On the day of the assay the stock solution was diluted as follows: 70 μL 10 mM stock added to 1.6 mL plasma to give a working concentration of 0.42 mM.
From a 30 mM stock solution in DMSO, test articles were diluted to a working concentration of 600 μM in PBS (i.e. 10 μL stock solution+490 μL PBS). This is the highest concentration (gives a final testing concentration of 30 μM). From this 600 μM solution test articles were serially diluted 1:3 in PBS to give a dose-response curve. 10 μL of each concentration of test article was then added to 4 wells of a 96-well plate (i.e. testing in quadruplicate). A positive control compound, BWA4C was used in every assay.
Human whole blood was added to the plates containing compounds (190 μL per well) and mixed well. The blood was incubated with compound at 37° C. for 15 minutes. Following this incubation, 10 μL of 0.42 mM A23187 was added to each well except the negative control wells to give a final calcium ionophore concentration of 20 μM. The plates were then incubated at 37° C. for 60 minutes. After the incubation period, plates were centrifuged for 15 min at 2000 g at 4° C. in sealed microplate buckets. Plasma was then removed for quantitation of LTB4 levels by ELISA.
LTB4 levels in the plasma were determined using a commercially available ELISA kit from Cayman Chemicals. The ELISA was run according to the manufacturer's instructions. The LTB4 levels in the vehicle control sample were then compared to those in which the test article had been added. From this a percent inhibition of LTB4 production by each concentration of test article was calculated and the IC50 was determined.

The structures appear in SMILES notation.

Experimental findings from US7576094B2, “Spiro derivatives as lipoxygenase inhibitors” (Eli Lilly and Company, priority 2004, dated 2009) are described below.

Usually EC50 stands for the concentration giving half of the maximal effect. By IC50 is commonly meant the point on the concentration scale where inhibition reaches its midpoint.

Consider `Cc1c(O)cc2c(c1C)N(CCCN1C(=O)c3ccccc3C1=O)CC1(CC1)C2` [2-(3-(6′-hydroxy-7′,8′-dimethyl-2′,4′-dihydro-1′H-spiro[cyclopropane-1,3′-quinoline]-1′-yl)propyl)isoindoline-1,3-dione], for which the EC50 in experiment [1] was less than 5 µM.

As for `Cc1c(C)c2c(c(C)c1OCc1ccc3ccccc3n1)CCC1(CCC1)O2` [2-{[(5,7,8-trimethyl-3,4-dihydrospiro[chromene-2,1′-cyclobutan]-6-yl)oxy]methyl}quinoline], the half-maximal effective concentration (EC50) in experiment [1] is less than 5 µM.

As for `CONCC1=Cc2c(cc(C)c(OC(=O)C(C)(C)C)c2C)OC12CCC2` [3-[(methoxyamino)methyl]-5,7-dimethylspiro[chromene-2,1′-cyclobutan]-6-yl pivalate], the EC50 in experiment [1] was less than 5 µM.

Take `CCONC1CC2(CCC2)Oc2cc(C)c(O)c(C)c21` (centres unmarked) [4-(ethoxyamino)-5,7-dimethyl-3,4-dihydrospiro[chromene-2,1′-cyclobutan]-6-ol]: the EC50 in experiment [1] was less than 5 µM. Moreover, the half-inhibitory concentration (IC50) in experiment [2] is less than 0.3 µM.

In the case of `CCCCCCNC1c2c(C)c(O)c(C)c(C)c2OCC12CCC2` (centres unmarked) [4-(hexylamino)-5,7,8-trimethylspiro[chroman-3,1′-cyclobutan]-6-ol], in experiment [1], the EC50 is less than 5 µM. The IC50 in experiment [2] is less than 0.3 µM.

Take `CON(C)C1CC2(CCC2)Oc2c(C)c(C)c(O)c(C)c21` (centres unmarked) [4-[methoxy(methyl)amino]-5,7,8-trimethyl-3,4-dihydrospiro[chromene-2,1′-cyclobutan]-6-ol]: the concentration for a half-maximal effect (EC50) in experiment [1] is less than 5 µM.

As for `Cc1c(C)c2c(c(C)c1O)C(O)CC1(CCC1)O2` (centres unmarked) [5,7,8-trimethyl-3,4-dihydrospiro[chromene-2,1′-cyclobutane]-4,6-diol], the EC50 in experiment [1] was less than 5 µM.

In the case of `CCO/N=C1\CC2(CCC2)Oc2cc(CC)c(O)c(CC)c21` [5,7-diethyl-6-hydroxyspiro[chromene-2,1′-cyclobutan]-4(3H)-one O-ethyloxime], the concentration for a half-maximal effect (EC50) in experiment [1] was less than 5 µM. For the same compound, the half-maximal inhibitory concentration (IC50) in experiment [2] is less than 0.3 µM.

As to `C=Cc1c(C)c(O)c(C)c2c1OC1(CCC1)CC2` [5,7-dimethyl-8-vinyl-3,4-dihydrospiro[chromene-2,1′-cyclobutan]-6-ol], in experiment [1], the EC50 is less than 5 µM. Further, the half-inhibitory concentration (IC50) in experiment [2] is less than 0.3 µM.

For the compound `Cc1cc(O)c(Cl)c2c1OC1(CCC1)CC2` [5-chloro-8-methyl-3,4-dihydrospiro[chromene-2,1′-cyclobutan]-6-ol], in experiment [1], the concentration for a half-maximal effect (EC50) is less than 5 µM.

With `CCO/N=C1\CC2(CCC2)Oc2c(C)c(C)c(O)c(CC)c21` [5-ethyl-6-hydroxy-7,8-dimethylspiro[chromene-2,1′-cyclobutan]-4(3H)-one O-ethyloxime], the EC50 in experiment [1] was less than 5 µM. The IC50 in experiment [2] was less than 0.3 µM.

For the compound `CCc1c(O)c(C)c(C)c2c1/C(=N/OC)CC1(CCC1)O2` [5-ethyl-6-hydroxy-7,8-dimethylspiro[chromene-2,1′-cyclobutan]-4(3H)-one O-methyloxime], the EC50 in experiment [1] is less than 5 µM. Moreover, the IC50 in experiment [2] was less than 0.3 µM.

On to `Cc1cc(O)c(C(C)C)c2c1OC1(CCC1)CC2` [5-isopropyl-8-methyl-3,4-dihydrospiro[chromene-2,1′-cyclobutan]-6-ol], for which the EC50 in experiment [1] is less than 5 µM.

With `Cc1c(C)c2c(c(C)c1O)C(C#N)=CC1(CCC1)O2` [6-hydroxy-5,7,8-trimethylspiro[chromene-2,1′-cyclobutane]-4-carbonitrile], the EC50 in experiment [1] was less than 5 µM.

`Cc1c(C)c2c(c(C)c1O)C(=O)CC1(CCC1)S2` [6′-hydroxy-5′,7′,8′-trimethylspiro[cyclobutane-1,2′-thiochromen]-4′(3′H)-one]: in experiment [1], the EC50 was less than 5 µM. For the same compound, the IC50 in experiment [2] is less than 0.3 µM.

Consider `Cc1c(OC(=O)CN(C)C)cc2c(c1C)OC1(CCC1)CC2` [7,8-dimethyl-3,4-dihydrospiro[chromene-2,1′-cyclobutan]-6-yl (dimethylamino)acetate], for which the half-maximal effective concentration (EC50) in experiment [1] is less than 5 µM.

As for `Cc1c2c(c(C)c(Cl)c1OC(=O)CN(C)C)OC1(CCC1)CC2` [7-chloro-5,8-dimethyl-3,4-dihydrospiro[chromene-2,1′-cyclobutan]-6-yl (dimethylamino)acetate], the 50% effective concentration (EC50) in experiment [1] was less than 5 µM. Further, the concentration for half-maximal inhibition (IC50) in experiment [2] was less than 0.3 µM.

Regarding `Cc1c(O)c(C(C)(C)C)cc2c1C(O)CC1(CCC1)O2` (centres unmarked) [7-tert-butyl-5-methylspiro[chroman-2,1′-cyclobutane]-4,6-diol], in experiment [1], the EC50 was less than 5 µM.

Take `Cc1ccc(S(=O)(=O)NCCCN2CC3(CCC3)Cc3cc(O)c(C)c(C)c32)cc1` [N-(3-(6′-hydroxy-7′,8′-dimethyl-2′,4′-dihydro-1′H-spiro[cyclobutane-1,3′-quinoline]-1′-yl)propyl)-4-methylbenzenesulfonamide]: the IC50 in experiment [2] was less than 0.3 µM. Also, the concentration giving a half-maximal response (EC50) in experiment [3] was less than 10 µM.

Regarding `Cc1c(O)cc2c(c1C)N(CCCNC(=O)c1ccccc1)CC1(CCC1)C2` [N-(3-(6′-hydroxy-7′,8′-dimethyl-2′,4′-dihydro-1′H-spiro[cyclobutane-1,3′-quinoline]-1′-yl)propyl)benzamide], the concentration for half-maximal inhibition (IC50) in experiment [2] was less than 0.3 µM. Besides, in experiment [3], the EC50 is less than 10 µM.

Turning to `Cc1cc2c(c(C)c1O)C(NS(=O)(=O)c1ccccc1)CC1(CCC1)O2` (centres unmarked) [N-(6-hydroxy-5,7-dimethyl-3,4-dihydrospiro[chromene-2,1′-cyclobutan]-4-yl)benzenesulfonamide], the EC50 in experiment [1] is less than 5 µM. For the same compound, the IC50 in experiment [2] was less than 0.3 µM.
